Reference: US20080161246A1, “Cytochrome P450 Oxidase Inhibitors and Uses Thereof” (ABBOTT LABORATORIES, priority 2006, published 2008)

Target: T1, human microsomes containing CYP3A4 (Homo sapiens, UniProt P08684)
T1 construct: human microsomes containing CYP3A4; from tissue
Experiment: Protection of lopinavir from metabolism by human microsomes containing CYP3A4
Format: biochemical
Conditions: unmetabolized lopinavir after incubation with human microsomes containing CYP3A4; for % LPV Remaining (0.4 μM): compound at 0.4 μM; for % LPV Remaining (4 μM): compound at 4 μM
Protocol: The pharmacokinetics boosting effects of the compounds of the present invention were evaluated by measuring the compounds' protective effects on the metabolism of lopinavir, an HIV protease inhibitor. Lopinavir were mixed with human microsomes containing CYP3A4 in the presence of a compound of the invention. […] Significant pharmacokinetics boosting effects were also observed for some compounds at 0.4 μM (“% LPV Remaining (0.4 μM)”).

T1 sequence (P08684 whole entry): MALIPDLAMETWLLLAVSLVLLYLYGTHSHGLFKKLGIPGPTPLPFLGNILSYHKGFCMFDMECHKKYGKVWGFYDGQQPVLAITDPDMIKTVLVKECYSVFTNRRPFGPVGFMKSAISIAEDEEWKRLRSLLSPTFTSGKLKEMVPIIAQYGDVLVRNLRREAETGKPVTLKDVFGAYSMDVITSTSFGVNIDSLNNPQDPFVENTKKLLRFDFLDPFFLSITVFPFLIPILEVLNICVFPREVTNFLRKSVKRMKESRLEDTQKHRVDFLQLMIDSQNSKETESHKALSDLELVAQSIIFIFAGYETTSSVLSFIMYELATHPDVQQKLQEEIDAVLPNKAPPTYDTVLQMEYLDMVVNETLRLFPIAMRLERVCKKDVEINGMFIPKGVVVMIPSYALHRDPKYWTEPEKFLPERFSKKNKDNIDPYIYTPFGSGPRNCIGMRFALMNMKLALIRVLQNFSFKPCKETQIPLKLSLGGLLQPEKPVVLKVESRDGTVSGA

Row | % LPV Remaining (0.4 μM) | % LPV Remaining (4 μM) | SMILES
1 | 1.8% | 83% | O=C(NC(Cc1ccccc1)C(=O)N(CCc1ccccc1)Cc1ccccc1)OCc1cncs1 [N-benzyl-N-(2-phenylethyl)-N-[(1,3-thiazol-5-ylmethoxy)carbonyl]-L-phenylalaninamide]
2 | 2% | 77% | CC(C)CN(CC(C)C)C(=O)[C@H](Cc1ccccc1)NC(=O)OCc1cncs1 [N,N-diisobutyl-N-[(1,3-thiazol-5-ylmethoxy)carbonyl]-L-phenylalaninamide]
3 | 1.9% | 78% | O=C(N[C@@H](Cc1ccccc1)C(=O)N(Cc1ccccc1)Cc1ccccc1)OCc1cncs1 [N,N-dibenzyl-N-[(1,3-thiazol-5-ylmethoxy)carbonyl]-L-phenylalaninamide]
